Data taken from ChEMBL document CHEMBL3860105, “Sulfonamide-Based Inhibitors of Aminoglycoside Acetyltransferase Eis Abolish Resistance to Kanamycin in Mycobacterium tuberculosis” (J Med Chem, 2016).

Experiments:
[1] = tested on: Mycobacterium tuberculosis H37Rv; conditions: 100 uM
[2] = tested on: Mycobacterium tuberculosis; experiment: Inhibition of Mycobacterium tuberculosis K204 acetyltransferase Eis assessed as potentiation of kanamycin A-induced antimicrobial activity by measuring kanamycin A MIC level at 100 uM pre-incubated for 24 hrs before kanamycin A addition followed by incubation for 6 days by alamar blue assay (Rvb kanamycin A alone MIC = 10 ug/ml)
[3] = tested on: Mycobacterium tuberculosis; experiment: Antimicrobial activity against Mycobacterium tuberculosis K204 at 100 uM incubation for 6 days by alamar blue assay; format: ADME; conditions: 144 h
[4] = tested on: Mycobacterium tuberculosis; experiment: Antimicrobial activity against Mycobacterium tuberculosis H37Rv at 100 uM incubation for 6 days by alamar blue assay; format: ADME; conditions: 144 h
[5] = tested on: Mycobacterium tuberculosis H37Rv; conditions: 25 uM
[6] = tested on: Mycobacterium tuberculosis; experiment: Antimicrobial activity against Mycobacterium tuberculosis H37Rv at 25 uM incubation for 6 days by alamar blue assay; format: ADME; conditions: 144 h
[7] = tested on: Mycobacterium tuberculosis; experiment: Antimicrobial activity against Mycobacterium tuberculosis K204 at 25 uM incubation for 6 days by alamar blue assay; format: ADME; conditions: 144 h
[8] = tested on: Mycobacterium tuberculosis; experiment: Inhibition of Mycobacterium tuberculosis K204 acetyltransferase Eis assessed as potentiation of kanamycin A-induced antimicrobial activity by measuring kanamycin A MIC level at 25 uM pre-incubated for 24 hrs before kanamycin A addition followed by incubation for 6 days by alamar blue assay (Rvb kanamycin A alone MIC = 10 ug/ml)
[9] = tested on: Mycobacterium tuberculosis; experiment: Inhibition of Mycobacterium tuberculosis AAC(2')-Ic at 200 uM
[10] = tested on: Mycobacterium tuberculosis; experiment: Inhibition of Mycobacterium tuberculosis K204 acetyltransferase Eis assessed as potentiation of kanamycin A-induced antimicrobial activity by measuring kanamycin A MIC level at 8 uM pre-incubated for 24 hrs before kanamycin A addition followed by incubation for 6 days by alamar blue assay (Rvb kanamycin A alone MIC = 10 ug/ml)
[11] = tested on: Mycobacterium tuberculosis; experiment: Antimicrobial activity against Mycobacterium tuberculosis K204 at 8 uM incubation for 6 days by alamar blue assay; format: ADME; conditions: 144 h
[12] = tested on: Mycobacterium tuberculosis; experiment: Antimicrobial activity against Mycobacterium tuberculosis H37Rv at 8 uM incubation for 6 days by alamar blue assay; format: ADME; conditions: 144 h
[13] = tested on: Mycobacterium tuberculosis H37Rv; conditions: 8 uM
[14] = tested on: Mycobacterium tuberculosis H37Rv; conditions: 37 uM
[15] = tested on: Mycobacterium tuberculosis; experiment: Inhibition of Mycobacterium tuberculosis K204 acetyltransferase Eis assessed as potentiation of kanamycin A-induced antimicrobial activity by measuring kanamycin A MIC level at 37 uM pre-incubated for 24 hrs before kanamycin A addition followed by incubation for 6 days by alamar blue assay (Rvb kanamycin A alone MIC = 10 ug/ml)
[16] = tested on: Mycobacterium tuberculosis; experiment: Antimicrobial activity against Mycobacterium tuberculosis K204 at 37 uM incubation for 6 days by alamar blue assay; format: ADME; conditions: 144 h
[17] = tested on: Mycobacterium tuberculosis; experiment: Antimicrobial activity against Mycobacterium tuberculosis H37Rv at 37 uM incubation for 6 days by alamar blue assay; format: ADME; conditions: 144 h
[18] = tested on: Mycobacterium tuberculosis; conditions: 20 uM
[19] = tested on: Mycobacterium tuberculosis H37Rv
[20] = tested on: Mycobacterium tuberculosis; experiment: Antimicrobial activity against Mycobacterium tuberculosis H37Rv at […] incubation for 6 days by alamar blue assay; format: ADME; conditions: 144 h
[21] = tested on: Mycobacterium tuberculosis; experiment: Inhibition of Mycobacterium tuberculosis K204 acetyltransferase Eis assessed as potentiation of kanamycin A-induced antimicrobial activity by measuring kanamycin A MIC level at […] pre-incubated for 24 hrs before kanamycin A addition followed by incubation for 6 days by alamar blue assay (Rvb kanamycin A alone MIC = 10 ug/ml)
[22] = tested on: Mycobacterium tuberculosis; experiment: Antimicrobial activity against Mycobacterium tuberculosis K204 at […] incubation for 6 days by alamar blue assay; format: ADME; conditions: 144 h
[23] = tested on: Mycobacterium tuberculosis; experiment: Antimicrobial activity against Mycobacterium tuberculosis H37Rv at 10 uM incubation for 6 days by alamar blue assay; format: ADME; conditions: 144 h
[24] = tested on: Mycobacterium tuberculosis; experiment: Antimicrobial activity against Mycobacterium tuberculosis K204 at 10 uM incubation for 6 days by alamar blue assay; format: ADME; conditions: 144 h
[25] = tested on: Mycobacterium tuberculosis; experiment: Inhibition of Mycobacterium tuberculosis K204 acetyltransferase Eis assessed as potentiation of kanamycin A-induced antimicrobial activity by measuring kanamycin A MIC level at 10 uM pre-incubated for 24 hrs before kanamycin A addition followed by incubation for 6 days by alamar blue assay (Rvb kanamycin A alone MIC = 10 ug/ml)
[26] = tested on: Mycobacterium tuberculosis H37Rv; conditions: 10 uM
[27] = tested on: Mycobacterium tuberculosis; experiment: Antimicrobial activity against Mycobacterium tuberculosis K204 at 30 uM incubation for 6 days by alamar blue assay; format: ADME; conditions: 144 h
[28] = tested on: Mycobacterium tuberculosis; experiment: Antimicrobial activity against Mycobacterium tuberculosis H37Rv at 30 uM incubation for 6 days by alamar blue assay; format: ADME; conditions: 144 h
[29] = tested on: Mycobacterium tuberculosis H37Rv; conditions: 30 uM
[30] = tested on: Mycobacterium tuberculosis; experiment: Inhibition of Mycobacterium tuberculosis K204 acetyltransferase Eis assessed as potentiation of kanamycin A-induced antimicrobial activity by measuring kanamycin A MIC level at 30 uM pre-incubated for 24 hrs before kanamycin A addition followed by incubation for 6 days by alamar blue assay (Rvb kanamycin A alone MIC = 10 ug/ml)
[31] = tested on: Mycobacterium tuberculosis; experiment: Antimicrobial activity against Mycobacterium tuberculosis K204 at 23 uM incubation for 6 days by alamar blue assay; format: ADME; conditions: 144 h
[32] = tested on: Mycobacterium tuberculosis; experiment: Antimicrobial activity against Mycobacterium tuberculosis H37Rv at 23 uM incubation for 6 days by alamar blue assay; format: ADME; conditions: 144 h
[33] = tested on: Mycobacterium tuberculosis; experiment: Inhibition of Mycobacterium tuberculosis K204 acetyltransferase Eis assessed as potentiation of kanamycin A-induced antimicrobial activity by measuring kanamycin A MIC level at 23 uM pre-incubated for 24 hrs before kanamycin A addition followed by incubation for 6 days by alamar blue assay (Rvb kanamycin A alone MIC = 10 ug/ml)
[34] = tested on: Mycobacterium tuberculosis H37Rv; conditions: 23 uM
[35] = tested on: Mycobacterium tuberculosis; experiment: Antimicrobial activity against Mycobacterium tuberculosis K204 at 70 uM incubation for 6 days by alamar blue assay; format: ADME; conditions: 144 h
[36] = tested on: Mycobacterium tuberculosis H37Rv; conditions: 70 uM
[37] = tested on: Mycobacterium tuberculosis; experiment: Inhibition of Mycobacterium tuberculosis K204 acetyltransferase Eis assessed as potentiation of kanamycin A-induced antimicrobial activity by measuring kanamycin A MIC level at 70 uM pre-incubated for 24 hrs before kanamycin A addition followed by incubation for 6 days by alamar blue assay (Rvb kanamycin A alone MIC = 10 ug/ml)
[38] = tested on: Mycobacterium tuberculosis; experiment: Antimicrobial activity against Mycobacterium tuberculosis H37Rv at 70 uM incubation for 6 days by alamar blue assay; format: ADME; conditions: 144 h
[39] = tested on: Mycobacterium tuberculosis H37Rv; remark: listed apart in the source

SMILES | MIC [1] | MIC [2] | Activity [3] | Activity [4] | further results
COc1cc(OC)cc(N(C)S(=O)(=O)c2ccc3[nH]c(=O)c(=O)[nH]c3c2)c1 | < 1.25 µg/mL | 5 to 10 µg/mL | Non-Toxic | Non-Toxic | –
CN(c1cccc(C(C)(C)C)c1)S(=O)(=O)c1ccc2[nH]c(=O)c(=O)[nH]c2c1 | < 1.25 µg/mL | 5 to 10 µg/mL | Non-Toxic | Non-Toxic | –
CC(C)c1ccc(N(C)S(=O)(=O)c2ccc3[nH]c(=O)c(=O)[nH]c3c2)cc1 | – | – | – | – | MIC [5]: < 1.25 µg/mL; Activity [6]: Non-Toxic; Activity [7]: Non-Toxic; MIC [8]: 2.5 to 5 µg/mL
CC(C)c1ccc(NS(=O)(=O)c2ccc3[nH]c(=O)c(=O)[nH]c3c2)cc1 | < 1.25 µg/mL | 5 µg/mL | Non-Toxic | Non-Toxic | –
COc1cccc(N(C)S(=O)(=O)c2ccc3[nH]c(=O)c(=O)[nH]c3c2)c1 | < 1.25 µg/mL | < 1.25 µg/mL | Non-Toxic | Non-Toxic | inhibition [9]: 15%
O=c1[nH]c2ccc(S(=O)(=O)Nc3ccccc3)cc2[nH]c1=O | < 1.25 µg/mL | 10 µg/mL | Non-Toxic | Non-Toxic | –
CN(c1ccc(Br)cc1)S(=O)(=O)c1ccc2[nH]c(=O)c(=O)[nH]c2c1 | – | – | – | – | MIC [10]: 2.5 µg/mL; Activity [11]: Non-Toxic; Activity [12]: Non-Toxic; MIC [13]: < 1.25 µg/mL
Cc1cccc(N(C)S(=O)(=O)c2ccc3nc(O)c(O)nc3c2)c1 | – | – | – | – | MIC [14]: < 1.25 µg/mL; MIC [15]: 2.5 to 5 µg/mL
COc1cc(N(C)S(=O)(=O)c2ccc3[nH]c(=O)c(=O)[nH]c3c2)cc2ccccc12 | < 1.25 µg/mL | 10 µg/mL | Non-Toxic | Non-Toxic | –
COc1ccccc1N(C)S(=O)(=O)c1ccc2[nH]c(=O)c(=O)[nH]c2c1 | < 1.25 µg/mL | 10 µg/mL | Non-Toxic | Non-Toxic | –
Cc1cccc(N(C)S(=O)(=O)c2ccc3[nH]c(=O)c(=O)[nH]c3c2)c1 | – | – | – | – | Activity [16]: Non-Toxic; Activity [17]: Non-Toxic
O=c1[nH]c2ccc(S(=O)(=O)Nc3ccc4c(c3)OCCO4)cc2[nH]c1=O | – | – | – | – | fold change (FC) [18]: > 3
CN(c1ccccc1)S(=O)(=O)c1ccc2[nH]c(=O)c(=O)[nH]c2c1 | < 1.25 µg/mL | 5 µg/mL | Non-Toxic | Non-Toxic | –
CCc1cccc(N(C)S(=O)(=O)c2ccc3[nH]c(=O)c(=O)[nH]c3c2)c1 | – | – | – | – | MIC [19]: < 1.25 µg/mL; Activity [20]: Non-Toxic; MIC [21]: 5 to 10 µg/mL; Activity [22]: Non-Toxic
Cc1cc(NS(=O)(=O)c2ccc3[nH]c(=O)c(=O)[nH]c3c2)ccc1Br | – | – | – | – | fold change (FC) [18]: > 3
CN(c1ccc(Cl)cc1)S(=O)(=O)c1ccc2[nH]c(=O)c(=O)[nH]c2c1 | – | – | – | – | Activity [23]: Non-Toxic; Activity [24]: Non-Toxic; MIC [25]: 2.5 µg/mL; MIC [26]: < 1.25 µg/mL
CN(c1ccc2ccccc2c1)S(=O)(=O)c1ccc2[nH]c(=O)c(=O)[nH]c2c1 | < 1.25 µg/mL | < 1.25 µg/mL | Non-Toxic | Non-Toxic | –
O=c1[nH]c2ccc(S(=O)(=O)Nc3ccc(Cl)c(C(F)(F)F)c3)cc2[nH]c1=O | – | – | – | – | fold change (FC) [18]: > 3
CN(c1cccc(F)c1)S(=O)(=O)c1ccc2[nH]c(=O)c(=O)[nH]c2c1 | – | – | – | – | Activity [27]: Non-Toxic; Activity [28]: Non-Toxic; MIC [29]: < 1.25 µg/mL; MIC [30]: 5 µg/mL
O=c1[nH]c2ccc(S(=O)(=O)Nc3ccc(Br)cc3)cc2[nH]c1=O | < 1.25 µg/mL | 5 µg/mL | Non-Toxic | Non-Toxic | –
CC(C)c1cccc(N(C)S(=O)(=O)c2ccc3[nH]c(=O)c(=O)[nH]c3c2)c1 | – | – | – | – | Activity [31]: Non-Toxic; Activity [32]: Non-Toxic; MIC [33]: 2.5 to 5 µg/mL; MIC [34]: < 1.25 µg/mL
CCCCc1cccc(N(C)S(=O)(=O)c2ccc3[nH]c(=O)c(=O)[nH]c3c2)c1 | – | – | – | – | Activity [35]: Non-Toxic; MIC [36]: < 1.25 µg/mL; MIC [37]: 5 to 10 µg/mL; Activity [38]: Non-Toxic
CN(c1cccc(Br)c1)S(=O)(=O)c1ccc2[nH]c(=O)c(=O)[nH]c2c1 | – | – | – | – | MIC [39]: < 1.25 µg/mL; Activity [20]: Non-Toxic; MIC [21]: 2.5 µg/mL; Activity [22]: Non-Toxic
